Experimental findings from patent US20090137572A1, “2-substituted-4-heteroaryl-pyrimidines useful for the treatment of proliferative disorders” (priority 2004, published 2009) are described below.

What all share (format): biochemical
Assay [1] concerns the target CDK2-cyclin A (Homo sapiens, UniProt P24941). Nature of the assay: Kinase assay (radioactive phosphate incorporation), CDK2-cyclin A. Particulars: read-out: Kinase Inhibition pIC50 CDK2-cyclin A (converted). The gist of the method: (§1)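 Radiometric filter-binding format: recombinant kinase + substrate, pH 7.4 MOPS buffer with EGTA, DTT, vanadate; 100 μM ATP/[γ-32P]-ATP, 15 mM MgCl2; 30° C; stopped on ice, P81 or GF/C filtration, scintillation read.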

Assay [2] has as its target GSK3b (Homo sapiens, UniProt P49841). Nature of the assay: Kinase assay (radioactive phosphate incorporation), GSK-3b. Particulars: read-out: Kinase Inhibition pIC50 GSK-3b (converted). The gist of the method:
as §1

Assay [3] addresses CDK7/cyclin H (Homo sapiens, UniProt P50613). Nature of the assay: CDK 7 assay (CTD peptide substrate). The conditions noted are these: read-out: Kinase Inhibition pIC50 CDK7-cyclin H (converted). The essentials: (§2)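 Test compounds were incubated with recombinant human kinase/cyclin complex and CTD peptide substrate for 45 min at 30° C (pH 7.2, 100 μM ATP spiked with 32PγATP, 15 mM MgCl2). Reactions were stopped on ice, avidin was added, and phosphorylated peptide was captured on P81 filters and counted by scintillation.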

The target in assay [4] is CDK4-cyclin D1 (Homo sapiens, UniProt P11802). Nature of the assay: Kinase assay (radioactive phosphate incorporation), CDK4-cyclin D1. Particulars: read-out: Kinase Inhibition pIC50 CDK4-cyclin D1 (converted). The essentials:
as §1

Assay [5] concerns the target CDK1-cyclin B (Homo sapiens, UniProt P06493). Nature of the assay: Kinase assay (radioactive phosphate incorporation), CDK1-cyclin B. The conditions noted are these: read-out: Kinase Inhibition pIC50 CDK1-cyclin B (converted). The gist of the method: as §1
Assay [6] deals with T1, Flt3 (FMS-like tyrosine kinase-3) (Homo sapiens, UniProt P36888).
T1 sequence (P36888 27-993): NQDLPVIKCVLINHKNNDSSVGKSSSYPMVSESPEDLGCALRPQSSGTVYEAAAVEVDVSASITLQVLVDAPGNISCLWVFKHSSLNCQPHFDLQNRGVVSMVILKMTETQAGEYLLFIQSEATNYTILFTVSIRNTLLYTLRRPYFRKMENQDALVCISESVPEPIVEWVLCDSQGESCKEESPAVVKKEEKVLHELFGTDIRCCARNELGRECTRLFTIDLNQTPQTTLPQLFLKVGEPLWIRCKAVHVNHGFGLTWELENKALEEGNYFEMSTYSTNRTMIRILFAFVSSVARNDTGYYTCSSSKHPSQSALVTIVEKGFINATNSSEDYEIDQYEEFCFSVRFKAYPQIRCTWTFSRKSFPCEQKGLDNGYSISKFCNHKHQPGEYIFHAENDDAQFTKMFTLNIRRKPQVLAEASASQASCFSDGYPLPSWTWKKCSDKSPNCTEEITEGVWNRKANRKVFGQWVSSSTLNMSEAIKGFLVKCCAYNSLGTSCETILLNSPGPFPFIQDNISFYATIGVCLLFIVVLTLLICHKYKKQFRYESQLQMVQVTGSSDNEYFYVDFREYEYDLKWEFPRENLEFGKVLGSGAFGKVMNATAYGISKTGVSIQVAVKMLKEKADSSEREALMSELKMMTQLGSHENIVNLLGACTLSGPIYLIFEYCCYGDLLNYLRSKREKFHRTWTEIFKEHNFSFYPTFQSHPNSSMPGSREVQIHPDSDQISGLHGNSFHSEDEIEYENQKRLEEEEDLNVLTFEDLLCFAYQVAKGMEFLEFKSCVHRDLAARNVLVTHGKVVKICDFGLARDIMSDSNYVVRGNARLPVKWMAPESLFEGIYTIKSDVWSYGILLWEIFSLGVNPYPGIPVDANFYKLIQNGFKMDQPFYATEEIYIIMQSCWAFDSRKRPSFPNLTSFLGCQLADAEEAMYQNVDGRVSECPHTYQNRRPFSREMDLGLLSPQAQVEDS
Nature of the assay: Kinase assay (radioactive phosphate incorporation), Flt3. The conditions noted are these: pIC50 is -log(IC50, M), read-out: Kinase Inhibition pIC50 Flt3 (converted). The essentials: as §1

Assay [7] deals with T2, Aurora A kinase (Homo sapiens, UniProt O14965).
T2 construct: purchased
T2 sequence (O14965 1-403): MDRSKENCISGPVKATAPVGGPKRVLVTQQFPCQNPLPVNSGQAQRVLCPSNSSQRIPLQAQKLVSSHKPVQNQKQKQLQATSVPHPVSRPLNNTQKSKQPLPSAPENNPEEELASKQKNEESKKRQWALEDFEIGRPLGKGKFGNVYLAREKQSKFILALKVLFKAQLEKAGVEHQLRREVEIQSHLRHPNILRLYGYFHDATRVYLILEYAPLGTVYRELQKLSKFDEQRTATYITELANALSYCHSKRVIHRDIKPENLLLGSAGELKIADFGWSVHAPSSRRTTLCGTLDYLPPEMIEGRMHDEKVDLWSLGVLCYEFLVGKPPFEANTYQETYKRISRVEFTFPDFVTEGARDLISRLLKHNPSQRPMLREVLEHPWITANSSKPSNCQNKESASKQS
Kind of assay: Aurora-A (human) kinase assay (Kemptide substrate). The conditions noted are these: pIC50 is -log(IC50, M); 15 μM ATP; read-out: Kinase Inhibition pIC50 Aurora A kinase (converted). The gist of the method: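 Radiometric filter-binding assay: commercial aurora-A kinase (5-10 ng) with 200 μM Kemptide in MOPS/EDTA pH 7.0, started with 10 mM Mg acetate and 15 μM ATP plus [γ-33P]-ATP. Incubated 40 min at room temperature, stopped with phosphoric acid, incorporated 33P counted by scintillation.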

The target in assay [8] is CDK2-cycline E (Homo sapiens, UniProt P24941). Kind of assay: Kinase assay (radioactive phosphate incorporation), CDK2-cyclin E. The conditions noted are these: read-out: Kinase Inhibition pIC50 CDK2-cycline E (converted). The gist of the method: as §1
In assay [9] the target is CDK9/cyclin T1 (Homo sapiens, UniProt P50750). Kind of assay: CDK 9 assay (CTD peptide substrate). Particulars: read-out: Kinase Inhibition pIC50 CDK9-cyclin T1 (converted). The gist of the method:
as §2

GSK3b, sequence (P49841 whole entry, species assumed): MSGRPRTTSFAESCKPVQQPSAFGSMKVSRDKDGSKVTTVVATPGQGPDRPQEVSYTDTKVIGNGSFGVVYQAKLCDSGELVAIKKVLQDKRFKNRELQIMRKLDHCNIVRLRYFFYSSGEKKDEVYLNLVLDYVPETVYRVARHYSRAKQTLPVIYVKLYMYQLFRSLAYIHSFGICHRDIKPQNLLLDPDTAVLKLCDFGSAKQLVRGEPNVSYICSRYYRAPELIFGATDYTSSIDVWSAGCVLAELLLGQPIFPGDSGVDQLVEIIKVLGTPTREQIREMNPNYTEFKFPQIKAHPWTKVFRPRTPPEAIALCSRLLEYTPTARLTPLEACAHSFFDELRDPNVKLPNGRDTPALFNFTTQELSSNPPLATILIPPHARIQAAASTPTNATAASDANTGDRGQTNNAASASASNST
CDK9/cyclin T1, sequence (P50750 whole entry): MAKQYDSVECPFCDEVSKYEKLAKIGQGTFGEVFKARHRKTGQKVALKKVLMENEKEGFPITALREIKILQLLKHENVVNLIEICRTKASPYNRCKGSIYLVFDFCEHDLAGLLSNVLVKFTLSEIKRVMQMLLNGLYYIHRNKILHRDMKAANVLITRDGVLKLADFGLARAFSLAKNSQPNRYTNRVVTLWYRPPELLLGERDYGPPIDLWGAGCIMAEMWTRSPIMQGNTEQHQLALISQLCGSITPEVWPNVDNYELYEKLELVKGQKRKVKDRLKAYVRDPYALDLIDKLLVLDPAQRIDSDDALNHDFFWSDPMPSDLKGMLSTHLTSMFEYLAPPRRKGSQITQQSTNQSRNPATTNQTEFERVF
CDK9/cyclin T1, sequence (O60563 whole entry partner): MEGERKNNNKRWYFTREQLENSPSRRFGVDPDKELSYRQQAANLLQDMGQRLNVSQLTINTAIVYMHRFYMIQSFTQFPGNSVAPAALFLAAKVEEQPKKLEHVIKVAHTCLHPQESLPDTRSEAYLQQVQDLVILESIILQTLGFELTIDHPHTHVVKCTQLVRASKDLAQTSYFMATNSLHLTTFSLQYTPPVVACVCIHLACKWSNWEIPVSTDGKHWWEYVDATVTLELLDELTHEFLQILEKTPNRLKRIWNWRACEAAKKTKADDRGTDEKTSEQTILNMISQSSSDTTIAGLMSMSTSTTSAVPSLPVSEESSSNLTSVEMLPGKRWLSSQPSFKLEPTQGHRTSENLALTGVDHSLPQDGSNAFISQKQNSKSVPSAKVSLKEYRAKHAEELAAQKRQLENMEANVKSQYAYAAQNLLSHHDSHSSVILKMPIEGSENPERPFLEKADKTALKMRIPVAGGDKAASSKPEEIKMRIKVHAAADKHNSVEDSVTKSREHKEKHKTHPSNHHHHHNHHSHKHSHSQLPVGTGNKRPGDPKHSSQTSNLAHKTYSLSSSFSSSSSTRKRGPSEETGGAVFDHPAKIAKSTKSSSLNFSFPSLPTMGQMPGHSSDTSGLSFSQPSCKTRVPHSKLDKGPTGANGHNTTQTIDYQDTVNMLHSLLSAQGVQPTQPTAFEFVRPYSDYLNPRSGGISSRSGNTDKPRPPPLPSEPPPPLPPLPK
CDK7/cyclin H, sequence (P50613 whole entry): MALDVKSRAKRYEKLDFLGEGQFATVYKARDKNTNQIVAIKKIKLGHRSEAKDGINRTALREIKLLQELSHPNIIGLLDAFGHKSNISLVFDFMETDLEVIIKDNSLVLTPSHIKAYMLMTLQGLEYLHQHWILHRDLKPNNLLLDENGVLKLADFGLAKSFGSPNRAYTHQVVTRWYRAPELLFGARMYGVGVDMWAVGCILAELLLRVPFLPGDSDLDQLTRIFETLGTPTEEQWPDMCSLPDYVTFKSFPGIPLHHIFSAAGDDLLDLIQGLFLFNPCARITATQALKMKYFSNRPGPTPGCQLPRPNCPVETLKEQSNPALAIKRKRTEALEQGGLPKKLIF
CDK7/cyclin H, sequence (P51946 whole entry partner): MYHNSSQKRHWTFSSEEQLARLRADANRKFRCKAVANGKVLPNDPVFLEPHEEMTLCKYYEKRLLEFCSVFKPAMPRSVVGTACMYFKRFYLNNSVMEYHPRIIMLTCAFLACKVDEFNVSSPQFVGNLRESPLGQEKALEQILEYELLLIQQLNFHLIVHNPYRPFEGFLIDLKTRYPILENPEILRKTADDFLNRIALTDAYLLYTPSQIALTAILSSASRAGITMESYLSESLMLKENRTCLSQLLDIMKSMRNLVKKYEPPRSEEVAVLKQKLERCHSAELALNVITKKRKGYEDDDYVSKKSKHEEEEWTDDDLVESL
CDK1-cyclin B, sequence (P06493 whole entry): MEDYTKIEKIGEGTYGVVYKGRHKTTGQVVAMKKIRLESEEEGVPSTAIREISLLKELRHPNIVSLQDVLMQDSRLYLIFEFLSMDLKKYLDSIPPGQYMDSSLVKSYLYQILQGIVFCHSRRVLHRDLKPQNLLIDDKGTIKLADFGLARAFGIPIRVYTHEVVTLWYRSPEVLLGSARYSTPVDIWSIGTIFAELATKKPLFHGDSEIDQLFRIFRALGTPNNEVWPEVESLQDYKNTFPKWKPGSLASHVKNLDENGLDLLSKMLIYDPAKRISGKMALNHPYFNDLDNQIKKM
CDK1-cyclin B, sequence (P14635 whole entry partner): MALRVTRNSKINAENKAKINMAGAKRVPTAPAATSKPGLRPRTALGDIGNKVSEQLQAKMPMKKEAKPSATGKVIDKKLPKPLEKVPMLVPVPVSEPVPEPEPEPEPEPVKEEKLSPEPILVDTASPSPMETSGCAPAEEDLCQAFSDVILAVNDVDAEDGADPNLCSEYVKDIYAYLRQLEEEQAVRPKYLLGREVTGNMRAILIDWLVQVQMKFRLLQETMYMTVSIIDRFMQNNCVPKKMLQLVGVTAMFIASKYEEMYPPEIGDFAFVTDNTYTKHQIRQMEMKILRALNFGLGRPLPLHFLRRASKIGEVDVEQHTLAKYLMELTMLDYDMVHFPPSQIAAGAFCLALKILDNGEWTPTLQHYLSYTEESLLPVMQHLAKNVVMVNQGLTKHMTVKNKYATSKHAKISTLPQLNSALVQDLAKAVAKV
CDK4-cyclin D1, sequence (P11802 whole entry): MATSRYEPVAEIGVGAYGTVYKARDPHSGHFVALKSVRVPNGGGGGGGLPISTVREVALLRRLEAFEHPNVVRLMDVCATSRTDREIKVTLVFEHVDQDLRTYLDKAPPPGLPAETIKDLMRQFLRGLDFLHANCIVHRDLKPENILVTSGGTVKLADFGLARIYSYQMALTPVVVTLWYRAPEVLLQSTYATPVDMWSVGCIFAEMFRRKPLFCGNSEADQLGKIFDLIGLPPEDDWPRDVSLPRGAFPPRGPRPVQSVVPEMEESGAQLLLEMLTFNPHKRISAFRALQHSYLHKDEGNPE
CDK4-cyclin D1, sequence (P24385 whole entry partner): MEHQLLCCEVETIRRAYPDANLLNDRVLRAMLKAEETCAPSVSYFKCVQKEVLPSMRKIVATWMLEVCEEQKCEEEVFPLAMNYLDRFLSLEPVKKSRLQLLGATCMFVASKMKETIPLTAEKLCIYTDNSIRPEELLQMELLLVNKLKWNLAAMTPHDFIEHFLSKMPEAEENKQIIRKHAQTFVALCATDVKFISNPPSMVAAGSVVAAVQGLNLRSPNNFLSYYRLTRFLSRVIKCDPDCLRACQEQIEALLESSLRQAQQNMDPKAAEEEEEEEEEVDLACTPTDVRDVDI

Take `CCNc1nc(C)c(-c2ccnc(Nc3cccc(S(=O)(=O)NCCOC)c3)n2)s1` [Compound 53, 3-[4-(2-Ethylamino-4-methyl-thiazol-5-yl)-pyrimidin-2-ylamino]-N-(2-methoxy-ethyl)-benzenesulfonamide]: the IC50 in assay [1] is 2000 nM; in assay [2], 501 nM; in assay [3], 158 nM; in assay [4] it was 158 nM; in assay [5] it was 2000 nM; in assay [6], 200 nM. Moreover, the figures for the IC50 in assay [7], in assay [8] and in assay [9] were 158 nM, 398 nM and 100 nM, respectively.

For `Cc1nc(N)sc1-c1ccnc(Nc2ccc(S(=O)(=O)NCCO)cc2)n1` [Compound 68, 4-[4-(2-Amino-4-methyl-thiazol-5-yl)-pyrimidin-2-ylamino]-N-(2-hydroxy-ethyl)-benzenesulfonamide], the IC50 in [1] was 20 nM; in assay [2], 1260 nM; in assay [3], 2000 nM; in assay [4] it was 1580 nM; in [5], 20 nM; in assay [6], 200 nM. The IC50 in assay [7] was 63.1 nM; in assay [8] it was 10 nM; in assay [9], 200 nM.

`CCNc1nc(C)c(-c2ccnc(Nc3cccc(S(N)(=O)=O)c3)n2)s1` [Compound 18, 3-[4-(2-Ethylamino-4-methyl-thiazol-5-yl)-pyrimidin-2-ylamino]-benzenesulfonamide]: the IC50 in assay [1] was 1580 nM; in assay [2], 2510 nM; in assay [3], 126 nM; in [4], 251 nM; in assay [5], 2000 nM; in assay [6] it was 158 nM. Moreover, the figures for the IC50 in assay [8] and in [9] were 794 nM and 15.8 nM, respectively.

In the case of `CNc1nc(C)c(-c2ccnc(Nc3ccc(S(C)(=O)=O)cc3)n2)s1` [Compound 20, (4-Methanesulfonyl-phenyl)-[4-(4-methyl-2-methylamino-thiazol-5-yl)-pyrimidin-2-yl]-amine], the IC50 was 15.8 nM in [1]; 316 nM in [2]; 3980 nM in [3]; 2510 nM in [4]; 158 nM in assay [5]; 316 nM in assay [6]. For the same compound, the IC50 was 2.51 nM in [8] and 63.1 nM in assay [9].

For the compound `CNc1nc(C)c(-c2ccnc(Nc3ccc(CNC(C)=O)cc3)n2)s1` [Compound 14, N-{4-[4-(4-Methyl-2-methylamino-thiazol-5-yl)-pyrimidin-2-ylamino]-benzyl}-acetamide], the IC50 in assay [1] was 631 nM; in [2], 631 nM; in assay [3], 794 nM; in [4] it was 126 nM; in [5], 398 nM; in [6], 79.4 nM. For the same compound, the IC50 in assay [8] is 39.8 nM; in assay [9] it was 79.4 nM.

As to `CNc1nc(C)c(-c2ccnc(Nc3ccc(S(=O)(=O)NCCO)cc3)n2)s1` [Compound 67, N-(2-Hydroxy-ethyl)-4-[4-(4-methyl-2-methylamino-thiazol-5-yl)-pyrimidin-2-ylamino]-benzenesulfonamide], the IC50 in assay [1] was 15.8 nM; in assay [2] it was 1260 nM; in [3], 3980 nM; in assay [4] it was 501 nM; in assay [5], 50.1 nM; in assay [6] it was 316 nM. For the same compound, the IC50 in assay [7] was 316 nM; in assay [8], 6.31 nM.

Regarding `CCNc1nc(C)c(-c2ccnc(Nc3ccc(S(=O)(=O)NCCO)cc3)n2)s1` [Compound 65, 4-[4-(2-Ethylamino-4-methyl-thiazol-5-yl)-pyrimidin-2-ylamino]-N-(2-hydroxy-ethyl)-benzenesulfonamide], the IC50 was 20 nM in assay [1]; 316 nM in [2]; 200 nM in assay [3]; 12.6 nM in [4]; 50.1 nM in [5]; 200 nM in assay [6]. The IC50 in assay [7] is 251 nM; in assay [8] it was 15.8 nM.
